Experimental data from PubChem BioAssay (NCI).
“And” between values parts separate entries of the source, which are not always exact repeats. Equal values may be shown once.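 The compound was tested at five concentrations on cells cultured in 96-well plates, with a 48-hour exposure period. GI50 = concentration required for 50% inhibition of growth. TGI: total growth inhibition.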

Tests used:
Assay in all cases: inhibition of tumour cell growth, NCI panel, 48 h
HCC-2998 colon = test system: HCC-2998 colon
HL-60(TB) leukemia = test system: HL-60(TB) leukemia
M14 melanoma = test system: M14 melanoma
MCF7 breast = test system: MCF7 breast
MOLT-4 leukemia = test system: MOLT-4 leukemia
NCI-H226 lung = test system: NCI-H226 lung
NCI-H522 lung = test system: NCI-H522 lung
OVCAR-8 ovarian = test system: OVCAR-8 ovarian
SK-MEL-28 melanoma = test system: SK-MEL-28 melanoma
SR leukemia = test system: SR leukemia

| SMILES | GI50 (HCC-2998 colon) [µM] | TGI (HCC-2998 colon) | GI50 (HL-60(TB) leukemia) [µM] | TGI (HL-60(TB) leukemia) [µM] | GI50 (M14 melanoma) | TGI (M14 melanoma) [µM] | GI50 (MCF7 breast) [µM] | TGI (MCF7 breast) | GI50 (MOLT-4 leukemia) | TGI (MOLT-4 leukemia) [µM] | GI50 (NCI-H226 lung) [µM] | TGI (NCI-H226 lung) [µM] | GI50 (NCI-H522 lung) [µM] | TGI (NCI-H522 lung) [µM] | GI50 (OVCAR-8 ovarian) [µM] | TGI (OVCAR-8 ovarian) [µM] | GI50 (SK-MEL-28 melanoma) [µM] | TGI (SK-MEL-28 melanoma) [µM] | GI50 (SR leukemia) [µM] | TGI (SR leukemia) |
| --- | --- | --- | --- | --- | --- | --- | --- | --- | --- | --- | --- | --- | --- | --- | --- | --- | --- | --- | --- | --- |
| Cc1ccc2c(C3C(C#N)=C(N)Oc4cc5ccccc5cc43)cc(=O)oc2c1 (stereo not drawn) | 3.91 | 58.6 µM | 0.424 | 17 | 0.697 µM | 21.3 | 0.428 | > 100 µM | 2.05 µM | > 100 | 62.1 | > 100 | 0.446 | 11.6 | 4.47 | > 100 | 12.3 | > 100 | 0.525 | > 100 µM |
| C=COC(=O)N[C@H]1CCc2cc(OC)c(OC)c(OC)c2-c2ccc(SC)c(=O)cc21 | – | 85.6 µM | – | < 0.01 | – | 14.7 | – | 59.8 µM | – | > 96.8 | – | 0.793 | – | < 0.01 | – | > 80.7 | – | > 96.3 | – | > 15.5 µM |
| Nc1c(C(=O)c2ccccc2)cnn1-c1ccc(F)cc1 | > 25 | > 25 µM | > 25 | > 25 | > 25 µM | > 25 | > 25 | > 25 µM | > 25 µM | > 25 | > 25 | > 25 | > 25 | > 25 | > 25 | > 25 | > 25 | > 25 | > 25 | > 25 µM |
| Cn1c(=O)c(Oc2ccc(F)cc2)cc2cnc(NC3CCOCC3)nc21 | > 25 | > 25 µM | > 25 | > 25 | > 25 µM | > 25 | > 25 | > 25 µM | > 25 µM | > 25 | > 17.1 | > 25 | > 25 | > 25 | > 25 | > 25 | > 25 | > 25 | > 25 | > 25 µM |
| O=c1[nH]c2ccc(O)cc2o1 | – | > 100 µM | – | > 100 | – | > 100 | – | > 100 µM | – | > 100 | – | > 100 | – | > 100 | – | > 100 | – | > 100 | – | > 100 µM |
| CC(C)OC(=O)[C@H](C)NP(=O)(OC[C@H]1O[C@@H](n2ccc(=O)[nH]c2=O)[C@](C)(F)[C@@H]1O)Oc1ccccc1 (stereo partly drawn) | > 100 | > 100 µM | > 100 | > 100 | > 100 µM | > 100 | > 100 | > 100 µM | > 100 µM | > 100 | > 100 | > 100 | > 100 | > 100 | > 100 | > 100 | > 100 | > 100 | > 100 | > 100 µM |
| COc1ccccc1Nc1ncc(-c2ccccc2)o1 | > 25 | > 25 µM | > 25 | > 25 | > 25 µM | > 25 | > 25 | > 25 µM | > 25 µM | > 25 | > 25 | > 25 | > 25 | > 25 | > 25 | > 25 | > 25 | > 25 | > 25 | > 25 µM |
| CN(C)C(=S)Sc1ccc([N+](=O)[O-])cc1[N+](=O)[O-] | 6.9 | 17.4 µM | 2.68 | 8.54 | 2.5 µM | 9.46 | 0.777 | 5.03 µM | 2.04 µM | > 42 | 4.33 | 17.5 | 0.482 | 1.6 | 3.27 | 12 | 6.75 | 18.4 | 0.296 | 16.8 µM |
| O=[P@@]1(c2ccccc2)O[C@H](COCc2ccccc2)[C@@H](OCc2ccccc2)[C@H](OCc2ccccc2)[C@H]1NCc1ccccc1 | 4.26 | > 100 µM | 2.15 | 6.09 | 3.21 µM | > 100 | 3.38 | 70.4 µM | 2.38 µM | 7.8 | 3.43 | 85.2 | 5.75 | > 100 | 3.24 | > 100 | 4.48 | > 100 | 2.37 | 6.69 µM |
| Nc1ccn(C2OC(CO)C(O)C2O)c(=O)n1 (stereo not drawn) | 1.69 | > 100 µM and 429 µM and > 500 µM | 0.493 | – | 0.103 µM and 0.285 µM and 0.976 µM | – | 0.0408 | > 100 µM and 434 µM and > 500 µM | 0.0103 µM and 0.0148 µM | – | 0.637 | > 500 | – | > 500 | 0.392 | > 500 | – | > 500 | – | > 100 µM and > 29.3 µM and 53.7 µM |
| COc1ccc(C(O)(CCC(C)C)C(CN2CCOCC2)c2ccc(Cl)cc2)cc1 (stereo not drawn) | 10.7 | 24 µM | 14.8 | 39.1 | 13.9 µM | 33.2 | 10.4 | 24.6 µM | 9.83 µM | 33.1 | 13.2 | 32.1 | 6.7 | 21.6 | 16.1 | 41.5 | 15.7 | 34.4 | 10.4 | 28.9 µM |
| COc1cc(/C=C/C(=O)c2cccc(-n3cc(-c4ccc(Cl)cc4)[nH]c3=O)c2)ccc1O | 2.35 | 5.5 µM | 4.56 | > 24.3 | 3.51 µM | 15.2 | 1.44 | 7.98 µM | 1.62 µM | > 25.1 | 6.38 | 19.5 | 1.81 | 11 | 2.39 | > 27.3 | 2.07 | 4.18 | 11.8 | > 100 µM |
| O=C(/C=C/C=C/c1ccccc1)c1ccccc1 | – | 31.7 µM | – | 28.6 | – | 33.6 | – | 42.9 µM | – | 49.4 | – | 34.3 | – | 20.2 | – | 26.1 | – | 31.3 | – | 34.5 µM |
| COc1ccc(C2=C(c3ccc(OC)cc3)C(=O)N3CCCC3C2)cc1 (stereo not drawn) | 26.4 | 93.4 µM | 4.36 | 28.4 | 28 µM | > 100 | 12.8 | > 100 µM | 15.5 µM | > 100 | 37.1 | > 100 | 14.1 | 96.8 | 10.4 | > 100 | 54.6 | > 100 | > 37.1 | > 100 µM |
| COc1cc2c3c(c1OC)-c1cc4c(cc1CC3(C#N)N(C(=O)c1ccccc1)CC2)OCO4 (stereo not drawn) | – | > 100 µM | – | > 100 | – | > 100 | – | > 100 µM | – | > 100 | – | 78.2 | – | 81.2 | – | > 74.2 | – | > 100 | – | > 100 µM |
| CS(=O)(=O)Nc1cc(-c2ccc3ncnc(Nc4c(Cl)ccc5c4OCO5)c3c2)cnc1Cl | 0.262 | 1.51 µM | 0.159 | 0.92 | 0.2 µM | 1.48 | 0.0524 | 1.47 µM | 0.165 µM | 0.76 | 0.309 | 3.54 | 0.224 | 2.56 | 0.387 | – | 0.12 | 1.03 | 0.325 | 3.41 µM |
